Data reported in ChEMBL document CHEMBL1201862, “PubChem BioAssay data set” (2004).
The source made the active and inactive calls.

What was measured:
Orexin receptor type 2 [1] = target: T1, Orexin receptor type 2 (Homo sapiens, UniProt O43614); test: Counterscreen assay for antagonists of the orexin 1 receptor (OX1R; HCRTR1): Homogeneous Time Resolved Fluorescence (HTRF)-based cell-based dose response assay for antagonists of the orexin 2 receptor (OX2R; HCRTR2), run by assay provider.; assay type: functional
T1 sequence (O43614 whole entry): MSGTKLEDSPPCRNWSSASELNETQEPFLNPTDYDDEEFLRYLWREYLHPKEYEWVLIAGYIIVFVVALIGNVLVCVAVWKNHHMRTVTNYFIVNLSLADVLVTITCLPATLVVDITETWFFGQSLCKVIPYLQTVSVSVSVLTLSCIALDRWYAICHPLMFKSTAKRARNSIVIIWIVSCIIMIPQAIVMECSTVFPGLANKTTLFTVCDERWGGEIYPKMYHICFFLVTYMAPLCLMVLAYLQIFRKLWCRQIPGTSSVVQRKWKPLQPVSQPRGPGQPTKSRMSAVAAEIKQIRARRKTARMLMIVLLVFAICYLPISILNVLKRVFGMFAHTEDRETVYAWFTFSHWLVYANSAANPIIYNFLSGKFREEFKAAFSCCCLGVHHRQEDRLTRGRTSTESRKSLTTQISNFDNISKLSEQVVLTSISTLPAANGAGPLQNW

[2] = Counterscreen for antagonists of the orexin 1 receptor (OX1R; HCRTR1): Fluorescence-based cell-based high throughput dose response assay to identify antagonists of the parental CHO cell line. [Related pubchem assays (depositor defined):AID434989, AID435008, AID463079, AID485270, AID492963, AID492964, AID492965, AID493232, AID504699, AID504701]; assay type: functional
[3] = target: T2, Orexin/Hypocretin receptor type 1 (Homo sapiens, UniProt O43613); test: Homogeneous Time Resolved Fluorescence (HTRF)-based cell-based high throughput dose response assay for antagonists of the orexin 1 receptor (OX1R; HCRTR1). [Related pubchem assays (depositor defined):AID434989, AID435008, AID463079, AID485270, AID492963, AID492964, AID492965, AID493232, AID504717, AID504718]; assay type: functional
T2 sequence (O43613 whole entry): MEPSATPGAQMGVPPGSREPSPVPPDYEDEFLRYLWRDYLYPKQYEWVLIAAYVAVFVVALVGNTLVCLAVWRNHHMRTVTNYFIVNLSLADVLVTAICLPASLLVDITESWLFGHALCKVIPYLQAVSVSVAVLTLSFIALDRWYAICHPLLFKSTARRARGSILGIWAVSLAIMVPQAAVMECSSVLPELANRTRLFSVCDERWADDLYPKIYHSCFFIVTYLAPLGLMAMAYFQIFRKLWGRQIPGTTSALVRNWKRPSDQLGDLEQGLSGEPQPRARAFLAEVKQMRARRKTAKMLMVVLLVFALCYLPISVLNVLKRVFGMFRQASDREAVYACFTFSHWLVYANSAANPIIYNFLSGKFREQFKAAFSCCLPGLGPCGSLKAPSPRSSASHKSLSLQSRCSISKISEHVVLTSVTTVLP

[4] = target: T2, Orexin/Hypocretin receptor type 1; test: Fluorescence-based cell-based high throughput dose response assay for antagonists of the orexin 1 receptor (OX1R; HCRTR1). [Related pubchem assays (depositor defined):AID434989, AID435008, AID463079, AID485270, AID492963, AID492964, AID492965, AID493232, AID504717, AID504718]; assay type: functional
CHO-K1 = test: Counterscreen for antagonists of the orexin 1 receptor (OX1R; HCRTR1): Homogeneous time resolved fluorescence (HTRF)-based cell-based dose response assay to identify antagonists of the parental CHO-K1 cell line. [Related pubchem assays (depositor defined):AID434989, AID435008, AID463079, AID485270, AID492963, AID492964, AID492965, AID493232, AID504699, AID504701]; assay type: functional; details: Cricetulus griseus;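 further: potency for inhibition of ATP-stimulated IP1 production as antagonists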
Orexin receptor type 2 [5] = target: T1, Orexin receptor type 2; test: Counterscreen assay for antagonists of the orexin 1 receptor (OX1R; HCRTR1): Fluorescence-based cell-based dose response assay for antagonists of the orexin 2 receptor (OX2R; HCRTR2), run by assay provider.; assay type: functional
Hexokinase HKDC1 = target: T3, Hexokinase HKDC1 (Homo sapiens, UniProt Q2TB90); test: HKDC1 hexokinase inhibitors, dose response, biochemical, W721R variant (AID 504729); assay type: functional
T3 sequence (Q2TB90 whole entry): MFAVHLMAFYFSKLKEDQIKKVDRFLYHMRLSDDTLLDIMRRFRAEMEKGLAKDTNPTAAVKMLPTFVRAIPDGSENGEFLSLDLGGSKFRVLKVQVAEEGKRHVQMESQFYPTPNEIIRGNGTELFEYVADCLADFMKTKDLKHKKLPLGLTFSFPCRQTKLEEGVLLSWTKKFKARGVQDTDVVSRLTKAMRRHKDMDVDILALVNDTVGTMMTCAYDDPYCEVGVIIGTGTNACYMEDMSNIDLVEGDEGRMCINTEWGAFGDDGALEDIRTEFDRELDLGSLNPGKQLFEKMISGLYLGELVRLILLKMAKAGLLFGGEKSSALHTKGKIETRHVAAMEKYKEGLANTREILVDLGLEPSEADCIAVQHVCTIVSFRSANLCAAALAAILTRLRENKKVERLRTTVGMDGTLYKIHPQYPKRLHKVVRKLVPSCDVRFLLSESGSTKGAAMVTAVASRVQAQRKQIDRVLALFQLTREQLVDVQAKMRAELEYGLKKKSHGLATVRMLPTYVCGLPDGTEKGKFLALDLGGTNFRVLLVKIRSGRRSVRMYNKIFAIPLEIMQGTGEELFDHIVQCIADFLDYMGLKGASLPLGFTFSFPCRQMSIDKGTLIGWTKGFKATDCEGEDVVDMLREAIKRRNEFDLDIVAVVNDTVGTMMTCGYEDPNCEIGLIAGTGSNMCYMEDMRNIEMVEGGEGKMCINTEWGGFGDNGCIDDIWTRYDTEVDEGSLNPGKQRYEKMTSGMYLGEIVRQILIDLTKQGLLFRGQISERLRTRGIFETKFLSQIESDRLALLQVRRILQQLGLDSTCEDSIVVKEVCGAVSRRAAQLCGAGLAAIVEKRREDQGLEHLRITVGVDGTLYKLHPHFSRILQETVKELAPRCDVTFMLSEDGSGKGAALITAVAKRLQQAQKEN

Nonstructural protein 1 = Nonstructural protein 1 (Influenza A virus, UniProt Q194T2); assay type: functional, Influenza A virus (A/California/07/2009(H1N1))
Genome polyprotein = Genome polyprotein (dengue virus type 2, UniProt P29990); test: Dengue-2 NS5 methyltransferase inhibitors, primary screen, biochemical, confirmation dose response (AID 588689); assay type: functional
Vero = Vero cell cytotoxicity, cytotoxicity control for flavivirus capping enzyme inhibitors (AID 588742); assay type: functional; details: Chlorocebus sabaeus
[6] = target: T4, Replicative DNA helicase DnaB (Mycobacterium tuberculosis, UniProt P9WMR3); test: DnaB intein splicing inhibitors, dose response, biochemical, cell-free fluorescence (AID 449749); assay type: functional
T4 sequence (P9WMR3 whole entry): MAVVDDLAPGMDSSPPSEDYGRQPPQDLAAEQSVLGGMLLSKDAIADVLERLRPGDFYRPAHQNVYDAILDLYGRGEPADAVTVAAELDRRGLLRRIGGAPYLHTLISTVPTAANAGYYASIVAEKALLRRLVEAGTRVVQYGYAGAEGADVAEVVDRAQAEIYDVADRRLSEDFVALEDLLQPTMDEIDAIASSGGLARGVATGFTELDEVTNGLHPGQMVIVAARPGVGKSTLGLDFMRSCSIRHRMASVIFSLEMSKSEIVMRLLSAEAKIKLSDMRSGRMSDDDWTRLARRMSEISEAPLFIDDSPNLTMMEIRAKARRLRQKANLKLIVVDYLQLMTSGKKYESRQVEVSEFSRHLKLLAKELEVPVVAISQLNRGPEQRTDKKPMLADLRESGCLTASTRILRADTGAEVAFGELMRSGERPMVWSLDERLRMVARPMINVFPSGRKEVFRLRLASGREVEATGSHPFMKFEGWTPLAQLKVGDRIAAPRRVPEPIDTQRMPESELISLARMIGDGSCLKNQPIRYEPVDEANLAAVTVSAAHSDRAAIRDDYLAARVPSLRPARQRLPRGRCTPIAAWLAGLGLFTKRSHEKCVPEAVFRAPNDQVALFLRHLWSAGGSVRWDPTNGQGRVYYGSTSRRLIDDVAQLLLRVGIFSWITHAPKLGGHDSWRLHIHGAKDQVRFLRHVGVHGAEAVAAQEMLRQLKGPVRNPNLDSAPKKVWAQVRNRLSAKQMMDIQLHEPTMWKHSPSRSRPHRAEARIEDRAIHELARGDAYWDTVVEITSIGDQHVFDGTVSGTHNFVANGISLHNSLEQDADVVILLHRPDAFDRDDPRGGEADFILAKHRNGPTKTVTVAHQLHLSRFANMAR

Protein RecA = target: T5, Protein RecA (Mycobacterium tuberculosis, UniProt P9WHJ3); test: Fluorescence Cell-Free Homogeneous Dose Retest to Identify Inhibitors of RecA-Intein Splicing Activity. [Related pubchem assays (depositor defined):AID2097, AID2223, AID489010, AID492950]; assay type: functional
T5 sequence (P9WHJ3 whole entry): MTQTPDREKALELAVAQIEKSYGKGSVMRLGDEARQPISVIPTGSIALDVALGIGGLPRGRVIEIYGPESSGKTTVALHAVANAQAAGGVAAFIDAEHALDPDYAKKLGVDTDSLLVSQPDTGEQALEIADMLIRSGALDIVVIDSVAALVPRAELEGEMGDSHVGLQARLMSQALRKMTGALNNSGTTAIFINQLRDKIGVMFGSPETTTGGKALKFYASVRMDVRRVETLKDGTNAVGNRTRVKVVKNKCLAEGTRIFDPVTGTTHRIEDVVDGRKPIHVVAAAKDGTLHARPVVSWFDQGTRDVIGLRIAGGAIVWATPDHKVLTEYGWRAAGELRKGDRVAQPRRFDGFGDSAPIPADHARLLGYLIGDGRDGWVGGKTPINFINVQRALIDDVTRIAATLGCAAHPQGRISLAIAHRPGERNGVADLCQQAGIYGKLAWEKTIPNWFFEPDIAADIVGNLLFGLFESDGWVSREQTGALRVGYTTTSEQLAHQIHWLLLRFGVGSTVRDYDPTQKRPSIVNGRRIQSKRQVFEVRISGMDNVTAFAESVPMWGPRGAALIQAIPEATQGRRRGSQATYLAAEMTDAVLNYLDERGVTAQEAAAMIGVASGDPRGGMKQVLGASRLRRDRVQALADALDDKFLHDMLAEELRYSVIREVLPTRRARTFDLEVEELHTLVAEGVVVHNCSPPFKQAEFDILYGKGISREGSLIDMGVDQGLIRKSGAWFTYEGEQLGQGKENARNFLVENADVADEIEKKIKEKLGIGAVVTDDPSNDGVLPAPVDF

[7] = A Cell Based Secondary Assay to Explore Cytotoxicity in THP-1 Cells of Compounds that Modulate Mycobacterium tuberculosis in Media Containing Glycerol versus Media without Glycerol (2).; assay type: functional
[8] = Vero cell cytotoxicity, cytotoxicity control for M. tuberculosis inhibitor project, purified and synthesized samples, set 3 (AID 504684); assay type: functional
[9] = Luminescence-based cell-based high throughput dose response assay to identify activators of the DAF-12 from the parasite S. stercoralis (ssDAF-12).; assay type: functional
[10] = target: T6, Oxysterols receptor LXR-beta (Homo sapiens, UniProt P55055); test: LXR agonists, Gal4 luciferase reporter, dose response, counter-screen for ssDAF-12 agonist project, cell-based, luminescence, HEK293, S. stercoralis campaign (AID 720737); assay type: functional; details: read-out: IC50 (the source's name)
T6 sequence (P55055 whole entry): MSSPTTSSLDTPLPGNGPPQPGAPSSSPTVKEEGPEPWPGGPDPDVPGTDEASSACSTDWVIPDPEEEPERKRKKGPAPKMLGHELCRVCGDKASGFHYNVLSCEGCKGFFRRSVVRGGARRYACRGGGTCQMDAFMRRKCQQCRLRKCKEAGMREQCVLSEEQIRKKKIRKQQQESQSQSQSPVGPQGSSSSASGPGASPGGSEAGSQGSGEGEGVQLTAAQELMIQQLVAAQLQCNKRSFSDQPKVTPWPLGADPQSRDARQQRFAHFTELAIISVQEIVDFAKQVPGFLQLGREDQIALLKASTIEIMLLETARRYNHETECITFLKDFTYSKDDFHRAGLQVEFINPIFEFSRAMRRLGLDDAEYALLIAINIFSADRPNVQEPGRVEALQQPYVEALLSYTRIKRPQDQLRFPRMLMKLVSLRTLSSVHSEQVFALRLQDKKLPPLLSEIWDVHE

Chain of Nonstructural protein 1 (Q194T2 whole entry): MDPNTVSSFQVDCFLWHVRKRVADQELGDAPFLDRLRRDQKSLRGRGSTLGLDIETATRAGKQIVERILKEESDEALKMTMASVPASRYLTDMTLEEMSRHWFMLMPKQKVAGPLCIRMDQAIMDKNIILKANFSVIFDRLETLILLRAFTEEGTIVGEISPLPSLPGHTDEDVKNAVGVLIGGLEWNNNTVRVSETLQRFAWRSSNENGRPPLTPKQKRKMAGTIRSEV
Chain of Genome polyprotein (P29990 2492-3391 limits assumed): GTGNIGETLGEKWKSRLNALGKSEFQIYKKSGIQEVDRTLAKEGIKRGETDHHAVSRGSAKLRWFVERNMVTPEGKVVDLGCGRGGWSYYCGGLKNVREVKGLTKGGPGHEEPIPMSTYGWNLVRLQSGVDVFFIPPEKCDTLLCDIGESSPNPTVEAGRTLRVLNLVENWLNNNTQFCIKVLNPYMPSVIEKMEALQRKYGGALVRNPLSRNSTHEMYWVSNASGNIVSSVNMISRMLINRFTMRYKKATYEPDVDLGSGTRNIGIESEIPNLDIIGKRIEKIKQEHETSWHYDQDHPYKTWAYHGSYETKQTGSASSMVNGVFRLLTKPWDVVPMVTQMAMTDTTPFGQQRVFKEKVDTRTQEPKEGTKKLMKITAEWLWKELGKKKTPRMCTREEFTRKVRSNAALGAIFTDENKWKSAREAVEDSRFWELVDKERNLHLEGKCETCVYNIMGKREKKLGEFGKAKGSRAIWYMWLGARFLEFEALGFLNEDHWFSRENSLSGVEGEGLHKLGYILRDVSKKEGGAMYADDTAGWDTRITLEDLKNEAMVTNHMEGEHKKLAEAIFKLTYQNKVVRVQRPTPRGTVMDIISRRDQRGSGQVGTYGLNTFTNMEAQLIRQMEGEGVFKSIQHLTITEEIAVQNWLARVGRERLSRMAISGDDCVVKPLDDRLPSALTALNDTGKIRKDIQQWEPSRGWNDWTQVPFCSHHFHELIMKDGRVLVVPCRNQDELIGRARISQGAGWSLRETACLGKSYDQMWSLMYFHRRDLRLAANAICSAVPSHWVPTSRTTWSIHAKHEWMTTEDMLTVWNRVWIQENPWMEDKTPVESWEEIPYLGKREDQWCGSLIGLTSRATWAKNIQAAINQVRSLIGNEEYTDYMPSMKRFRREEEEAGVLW

Structure (SMILES): COc1cc(OC)c(-c2nc3ccccc3s2)cc1OC
- IC50 (Orexin receptor type 2 [1]): > 50 µM (inactive)
- IC50 [2]: > 49.7 µM (inactive)
- IC50 [3]: 0.46 µM (active)
- IC50 [4]: 5.47 µM (active)
- IC50 (CHO-K1): > 66.2 µM (inactive)
- IC50 (Orexin receptor type 2 [5]): > 88.8 µM (inactive)

Structure (SMILES): Cc1ccc(SC2=C(N(C)C)C(=O)c3ccccc3C2=O)cc1
- IC50 (Hexokinase HKDC1): 6.72 µM (active)
- IC50 (Nonstructural protein 1): 8.5 µM (active)
- IC50 (Genome polyprotein): 65 µM (active)
- CC50 (Vero): 22.1 µM (active)

Structure (SMILES): O=C1C(Br)=Cc2cccc3cccc1c23
- AC50 [6]: > 380 µM (inactive)
- EC50 (Protein RecA): 0.581 µM (active)
- CC50 [7]: > 100 µM (active)
- CC50 [8]: 74.6 µM (active)

Structure (SMILES): COc1ccc(-c2nn3c(-c4ccccc4)nnc3s2)cc1
- IC50 (Orexin receptor type 2 [1]): > 50 µM (inactive)
- IC50 [2]: > 49.8 µM (inactive)
- IC50 [3]: 2.44 µM (active)
- IC50 [4]: > 5.53 µM (active)
- IC50 (CHO-K1): > 66.2 µM (inactive)
- IC50 (Orexin receptor type 2 [5]): > 88.8 µM (inactive)

Structure (SMILES): Cc1ccc(NC(=O)c2ccc3ccccc3n2)nc1
- IC50 (Orexin receptor type 2 [1]): 2.35 µM (active)
- IC50 [2]: > 49.7 µM (inactive)
- IC50 [3]: 1.64 µM (active)
- IC50 [4]: 10.4 µM (inactive)
- IC50 (CHO-K1): > 66.2 µM (inactive)
- IC50 (Orexin receptor type 2 [5]): > 88.8 µM (inactive)
- IC50 [9]: > 67.5 µM (inactive)
- EC50 [10]: > 67.5 µM (inactive)
